Calls of active or inactive are those of the source.
Legend:
[1] = tested on: Streptococcus sp. 'group A'; assay: Streptococcus pyogenes SK(-)GAS viability under kanamycin – luminescence, BacTiterGlo, confirmation, counter-screen for streptokinase expression inhibitor project, dose response (AID 1900); assay type: functional, organism-based
[2] = tested on: Streptococcus; assay: GAS UMAA2166 growth inhibition – luminescence, BacTiterGlo, counter-screen for streptokinase expression inhibitor project, dose response (AID 1915); assay type: functional, organism-based;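 also: potency for reduction of bacterial viability or growth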
[3] = THP-1 cell cytotoxicity, dose response, cytotoxicity control for non-replicating M. tuberculosis project (AID 489025); assay type: functional
[4] = Vero E6 cell cytotoxicity, dose response, cytotoxicity control for non-replicating M. tuberculosis project, secondary assay (AID 492998); assay type: functional, VeroE6; details: Vero C1008
[5] = biological target: T1, Short transient receptor potential channel 4 (Mus musculus, UniProt Q9QUQ5); assay: calcium entry via TRPC4 opening agents – cell-based, HEK293 TRPC4/mu-opioid, Fluo-4 calcium, dose response (AID 434937); assay type: functional
T1 sequence (Q9QUQ5 whole entry): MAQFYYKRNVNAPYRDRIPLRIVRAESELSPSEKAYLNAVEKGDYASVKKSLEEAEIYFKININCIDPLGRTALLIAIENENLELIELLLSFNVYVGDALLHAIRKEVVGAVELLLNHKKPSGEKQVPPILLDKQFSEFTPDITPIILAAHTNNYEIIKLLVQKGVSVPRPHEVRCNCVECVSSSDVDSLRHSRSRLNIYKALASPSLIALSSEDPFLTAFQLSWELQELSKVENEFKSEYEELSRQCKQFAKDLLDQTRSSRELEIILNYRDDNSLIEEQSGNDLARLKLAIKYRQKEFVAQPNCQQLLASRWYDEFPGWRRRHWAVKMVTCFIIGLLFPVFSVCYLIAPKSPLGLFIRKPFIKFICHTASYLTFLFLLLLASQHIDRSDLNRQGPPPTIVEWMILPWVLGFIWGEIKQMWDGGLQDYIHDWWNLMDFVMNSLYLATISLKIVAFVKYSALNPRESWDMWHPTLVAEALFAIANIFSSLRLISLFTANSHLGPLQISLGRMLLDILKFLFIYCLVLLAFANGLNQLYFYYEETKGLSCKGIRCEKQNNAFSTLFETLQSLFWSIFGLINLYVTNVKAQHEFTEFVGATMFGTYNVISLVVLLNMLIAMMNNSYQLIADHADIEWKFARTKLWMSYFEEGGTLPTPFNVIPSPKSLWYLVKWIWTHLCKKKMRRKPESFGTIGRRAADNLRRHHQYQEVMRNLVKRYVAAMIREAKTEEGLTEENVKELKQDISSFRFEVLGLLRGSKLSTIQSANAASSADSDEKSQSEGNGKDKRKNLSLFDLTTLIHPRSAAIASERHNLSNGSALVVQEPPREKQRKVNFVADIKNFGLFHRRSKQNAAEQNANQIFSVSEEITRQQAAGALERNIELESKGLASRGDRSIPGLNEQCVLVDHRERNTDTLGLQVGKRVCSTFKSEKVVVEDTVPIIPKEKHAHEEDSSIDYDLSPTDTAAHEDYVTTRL

[6] = cells; assay type: functional
[7] = biological target: Cytochrome P450 2C19 (Homo sapiens, UniProt P33261); assay: Cytochrome panel assay with activity outcomes. Panel member name: p450-cyp2c19 Compounds with AC50 equal or less than 10 uM are considered active; assay type: functional
Cytochrome P450 2C19, sequence (P33261 whole entry): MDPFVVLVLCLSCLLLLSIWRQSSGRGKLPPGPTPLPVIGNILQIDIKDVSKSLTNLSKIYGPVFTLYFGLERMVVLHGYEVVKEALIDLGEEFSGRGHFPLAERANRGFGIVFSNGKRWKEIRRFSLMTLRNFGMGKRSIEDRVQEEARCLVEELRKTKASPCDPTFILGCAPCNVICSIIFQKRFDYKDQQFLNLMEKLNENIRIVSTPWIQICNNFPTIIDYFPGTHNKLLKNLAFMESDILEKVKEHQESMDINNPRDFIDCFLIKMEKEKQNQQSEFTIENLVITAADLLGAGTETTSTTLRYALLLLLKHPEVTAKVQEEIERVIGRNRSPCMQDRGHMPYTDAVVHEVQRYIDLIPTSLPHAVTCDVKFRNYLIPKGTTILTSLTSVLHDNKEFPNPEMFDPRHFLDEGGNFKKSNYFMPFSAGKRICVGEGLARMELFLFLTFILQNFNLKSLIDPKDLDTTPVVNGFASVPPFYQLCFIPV

[8] = biological target: Cytochrome P450 2D6 (Homo sapiens, UniProt P10635);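 also: CYP2D6 member of a cytochrome P450 panel assay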
Cytochrome P450 2D6, sequence (P10635 whole entry): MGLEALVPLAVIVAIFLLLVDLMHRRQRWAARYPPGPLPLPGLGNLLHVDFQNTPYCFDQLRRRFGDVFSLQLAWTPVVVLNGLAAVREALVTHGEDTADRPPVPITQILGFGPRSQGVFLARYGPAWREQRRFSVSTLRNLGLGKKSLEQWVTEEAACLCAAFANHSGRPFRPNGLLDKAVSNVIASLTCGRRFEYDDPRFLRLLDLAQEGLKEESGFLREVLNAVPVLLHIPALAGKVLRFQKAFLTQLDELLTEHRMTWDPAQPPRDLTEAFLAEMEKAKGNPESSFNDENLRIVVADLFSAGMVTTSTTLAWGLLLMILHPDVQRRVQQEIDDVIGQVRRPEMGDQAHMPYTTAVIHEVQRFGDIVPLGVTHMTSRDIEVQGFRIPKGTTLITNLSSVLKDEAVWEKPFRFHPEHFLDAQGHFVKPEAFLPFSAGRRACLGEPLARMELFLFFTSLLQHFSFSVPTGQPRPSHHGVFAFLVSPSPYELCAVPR

[9] = NIH-3T3 fibroblast cytotoxicity, dose response, cytotoxicity control, cell-based, fluorescence, Alamar Blue, secondary assay (AID 2327); assay type: functional;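 also: NIH-3T3 mouse fibroblasts cultured with fluconazole at 8 µg/mL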
[10] = fluconazole-exposed Candida albicans growth modulators – fluorescence, retest, confirmation (AID 2467); assay type: functional, cell-based
[11] = biological target: Intestinal-type alkaline phosphatase (Homo sapiens, UniProt P09923); assay: activation of human intestinal alkaline phosphatase – biochemical, dose response (AID 488873); assay type: functional
Intestinal-type alkaline phosphatase (Homo sapiens, UniProt P09923), sequence (P09923 whole entry): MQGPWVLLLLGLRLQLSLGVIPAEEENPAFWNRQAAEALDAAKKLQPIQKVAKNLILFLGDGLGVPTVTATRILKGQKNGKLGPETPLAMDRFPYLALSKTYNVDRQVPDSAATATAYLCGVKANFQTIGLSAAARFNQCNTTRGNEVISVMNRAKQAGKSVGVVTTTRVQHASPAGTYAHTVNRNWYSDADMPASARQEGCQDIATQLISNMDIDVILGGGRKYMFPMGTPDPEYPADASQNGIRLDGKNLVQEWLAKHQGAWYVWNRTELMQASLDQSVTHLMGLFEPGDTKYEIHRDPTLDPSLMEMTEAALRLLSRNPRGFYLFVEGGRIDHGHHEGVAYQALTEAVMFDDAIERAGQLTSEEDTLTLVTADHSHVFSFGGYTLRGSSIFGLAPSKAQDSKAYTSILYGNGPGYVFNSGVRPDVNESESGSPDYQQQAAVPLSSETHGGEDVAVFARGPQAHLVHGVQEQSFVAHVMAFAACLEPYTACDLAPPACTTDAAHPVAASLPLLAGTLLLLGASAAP

[12] = biological target: Intestinal-type alkaline phosphatase (Mus musculus, UniProt P24822); assay: mouse intestinal alkaline phosphatase activators, dose response, biochemical, luminescence, uHTS hits (AID 488783); assay type: functional
Intestinal-type alkaline phosphatase (Mus musculus, UniProt P24822), sequence (P24822 whole entry): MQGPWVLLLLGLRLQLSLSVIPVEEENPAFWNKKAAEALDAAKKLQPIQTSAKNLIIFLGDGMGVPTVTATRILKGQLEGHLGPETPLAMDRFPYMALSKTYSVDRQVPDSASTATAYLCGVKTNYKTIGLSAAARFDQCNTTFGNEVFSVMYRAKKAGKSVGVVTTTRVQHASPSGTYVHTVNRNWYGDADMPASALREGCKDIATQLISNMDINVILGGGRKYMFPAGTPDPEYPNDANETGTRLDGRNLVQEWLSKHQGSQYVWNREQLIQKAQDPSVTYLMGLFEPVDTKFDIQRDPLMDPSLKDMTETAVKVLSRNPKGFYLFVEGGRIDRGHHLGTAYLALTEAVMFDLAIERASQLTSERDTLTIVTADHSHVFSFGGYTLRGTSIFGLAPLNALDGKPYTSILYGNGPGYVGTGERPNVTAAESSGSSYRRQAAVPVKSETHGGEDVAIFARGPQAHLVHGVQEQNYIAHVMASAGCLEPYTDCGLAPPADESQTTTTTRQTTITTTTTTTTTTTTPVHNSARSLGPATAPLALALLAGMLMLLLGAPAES

[13] = biological target: T2, Alkaline phosphatase, tissue-nonspecific isozyme (Homo sapiens, UniProt P05186); assay: activation of tissue-nonspecific alkaline phosphatase – biochemical, TNAP isozyme, mouse IAP uHTS hits, selectivity assay for mouse IAP activator project, dose response (AID 488880); assay type: functional
T2 sequence (P05186 whole entry): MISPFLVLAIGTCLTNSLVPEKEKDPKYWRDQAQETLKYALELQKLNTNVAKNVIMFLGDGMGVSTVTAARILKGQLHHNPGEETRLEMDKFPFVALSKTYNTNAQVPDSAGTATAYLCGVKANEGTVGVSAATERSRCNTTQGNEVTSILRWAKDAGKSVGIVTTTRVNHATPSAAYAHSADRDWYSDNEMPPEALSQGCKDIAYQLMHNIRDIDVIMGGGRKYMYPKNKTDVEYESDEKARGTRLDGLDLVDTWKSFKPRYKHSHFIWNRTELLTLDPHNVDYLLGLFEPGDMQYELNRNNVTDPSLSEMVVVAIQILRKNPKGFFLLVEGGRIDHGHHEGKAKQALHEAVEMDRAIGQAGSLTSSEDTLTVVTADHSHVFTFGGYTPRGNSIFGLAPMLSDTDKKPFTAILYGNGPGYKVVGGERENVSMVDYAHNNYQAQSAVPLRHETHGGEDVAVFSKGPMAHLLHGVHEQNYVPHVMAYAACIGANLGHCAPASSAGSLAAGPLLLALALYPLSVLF

[14] = biological target: T3, Caspase-6 (Homo sapiens, UniProt P55212); assay: inhibition of CASP6 peptide cleavage – biochemical, VEID-R110 fluorescence, cherry-pick, dose response (AID 720632)
T3 sequence (P55212 whole entry): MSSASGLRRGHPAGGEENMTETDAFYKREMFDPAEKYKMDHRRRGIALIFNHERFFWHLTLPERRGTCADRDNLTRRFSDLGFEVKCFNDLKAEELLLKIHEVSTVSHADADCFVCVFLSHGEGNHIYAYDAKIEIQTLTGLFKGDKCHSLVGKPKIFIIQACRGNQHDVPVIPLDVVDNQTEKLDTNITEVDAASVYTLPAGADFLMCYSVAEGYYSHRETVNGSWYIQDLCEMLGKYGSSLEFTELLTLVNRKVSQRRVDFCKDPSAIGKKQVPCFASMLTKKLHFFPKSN

[15] = biological target: T4, Histone-lysine N-methyltransferase NSD2 (Homo sapiens, UniProt O96028); assay type: biochemical
T4 sequence (O96028 whole entry): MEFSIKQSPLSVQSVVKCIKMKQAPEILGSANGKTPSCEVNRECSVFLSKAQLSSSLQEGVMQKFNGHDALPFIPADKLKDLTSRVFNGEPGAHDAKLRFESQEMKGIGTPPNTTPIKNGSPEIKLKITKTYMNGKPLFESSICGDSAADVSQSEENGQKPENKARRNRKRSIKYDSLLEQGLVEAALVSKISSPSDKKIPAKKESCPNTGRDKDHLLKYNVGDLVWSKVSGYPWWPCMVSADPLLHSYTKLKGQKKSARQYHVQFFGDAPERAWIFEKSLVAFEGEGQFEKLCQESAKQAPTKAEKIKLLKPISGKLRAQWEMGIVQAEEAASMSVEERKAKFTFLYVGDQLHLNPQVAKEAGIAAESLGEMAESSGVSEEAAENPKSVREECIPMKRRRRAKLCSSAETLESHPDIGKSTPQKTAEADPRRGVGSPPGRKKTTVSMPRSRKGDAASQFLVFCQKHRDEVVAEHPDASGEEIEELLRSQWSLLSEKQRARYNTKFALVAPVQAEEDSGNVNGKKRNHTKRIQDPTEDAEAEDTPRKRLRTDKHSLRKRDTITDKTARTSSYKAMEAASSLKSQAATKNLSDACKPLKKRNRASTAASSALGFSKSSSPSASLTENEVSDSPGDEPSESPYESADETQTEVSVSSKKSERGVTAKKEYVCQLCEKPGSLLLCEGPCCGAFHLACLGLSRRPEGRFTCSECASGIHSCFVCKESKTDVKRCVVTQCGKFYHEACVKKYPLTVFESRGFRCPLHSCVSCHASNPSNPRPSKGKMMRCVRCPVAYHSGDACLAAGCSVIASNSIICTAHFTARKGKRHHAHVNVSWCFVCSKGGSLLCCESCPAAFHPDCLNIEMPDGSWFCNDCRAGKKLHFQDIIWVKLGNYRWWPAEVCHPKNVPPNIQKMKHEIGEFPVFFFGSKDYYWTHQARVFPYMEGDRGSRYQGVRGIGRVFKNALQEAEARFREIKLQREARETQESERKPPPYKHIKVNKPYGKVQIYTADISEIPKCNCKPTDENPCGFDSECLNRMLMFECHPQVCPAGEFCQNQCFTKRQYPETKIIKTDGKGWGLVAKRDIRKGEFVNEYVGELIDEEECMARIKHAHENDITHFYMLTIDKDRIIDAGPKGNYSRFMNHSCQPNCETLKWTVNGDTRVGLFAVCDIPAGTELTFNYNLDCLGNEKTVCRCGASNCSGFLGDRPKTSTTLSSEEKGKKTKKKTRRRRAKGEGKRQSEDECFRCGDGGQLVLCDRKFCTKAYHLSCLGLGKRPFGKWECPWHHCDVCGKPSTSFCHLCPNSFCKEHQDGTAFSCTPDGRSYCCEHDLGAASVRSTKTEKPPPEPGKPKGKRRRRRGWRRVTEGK

[16] = biological target: T5, Tyrosine-protein phosphatase non-receptor type 7 (Homo sapiens, UniProt P35236); assay type: functional
T5 sequence (P35236 whole entry): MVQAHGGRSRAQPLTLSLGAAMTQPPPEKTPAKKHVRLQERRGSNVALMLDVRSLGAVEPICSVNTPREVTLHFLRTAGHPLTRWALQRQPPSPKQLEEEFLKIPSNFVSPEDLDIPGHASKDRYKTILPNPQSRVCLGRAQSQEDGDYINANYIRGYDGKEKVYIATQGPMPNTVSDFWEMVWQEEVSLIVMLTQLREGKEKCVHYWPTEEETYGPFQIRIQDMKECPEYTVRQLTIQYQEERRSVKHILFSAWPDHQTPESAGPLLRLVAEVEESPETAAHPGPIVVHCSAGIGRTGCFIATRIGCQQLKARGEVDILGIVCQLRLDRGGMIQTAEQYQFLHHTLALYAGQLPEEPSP

[17] = biological target: T6, Tyrosine-protein phosphatase non-receptor type 22 (Homo sapiens, UniProt Q9Y2R2); assay type: functional
T6 sequence (Q9Y2R2 whole entry): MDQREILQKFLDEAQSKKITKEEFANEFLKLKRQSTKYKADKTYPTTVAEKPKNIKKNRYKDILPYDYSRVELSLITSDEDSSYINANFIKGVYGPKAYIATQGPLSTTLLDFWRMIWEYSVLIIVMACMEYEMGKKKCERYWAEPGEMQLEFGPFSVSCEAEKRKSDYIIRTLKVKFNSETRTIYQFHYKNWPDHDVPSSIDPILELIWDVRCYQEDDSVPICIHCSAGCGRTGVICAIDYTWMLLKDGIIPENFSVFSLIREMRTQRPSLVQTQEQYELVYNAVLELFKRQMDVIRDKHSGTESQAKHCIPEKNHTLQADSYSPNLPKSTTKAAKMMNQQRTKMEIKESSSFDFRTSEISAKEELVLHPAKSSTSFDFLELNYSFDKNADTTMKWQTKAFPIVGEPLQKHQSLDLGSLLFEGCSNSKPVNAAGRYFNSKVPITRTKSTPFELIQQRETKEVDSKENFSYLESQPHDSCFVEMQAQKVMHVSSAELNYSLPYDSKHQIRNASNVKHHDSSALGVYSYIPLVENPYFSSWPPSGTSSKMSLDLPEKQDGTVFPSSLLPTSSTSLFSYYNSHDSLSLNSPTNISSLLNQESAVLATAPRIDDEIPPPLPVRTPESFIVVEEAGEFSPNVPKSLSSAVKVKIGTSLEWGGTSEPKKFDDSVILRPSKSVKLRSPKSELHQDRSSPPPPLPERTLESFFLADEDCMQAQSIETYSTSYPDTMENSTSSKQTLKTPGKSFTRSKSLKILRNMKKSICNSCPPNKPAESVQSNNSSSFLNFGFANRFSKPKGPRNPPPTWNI

[18] = biological target: T6, Tyrosine-protein phosphatase non-receptor type 22; assay type: functional; remark: listed apart in the source

Cc1ccc(C(=O)NNC(=S)NC(=O)c2ccc(Cl)cc2)cc1
inconclusive: AC50 ([7]; read-out: AC50) 35.5 µM | AC50 [8]
active: EC50 [1] 0.182 µM | EC50 [2] 3.71 µM | CC50 [3] 22.9 µM | CC50 [4] 17 µM | EC50 [5] 2.11 µM | IC50 [6] < 0.1 µM

NNC(=O)c1cc(O)c(O)c(O)c1
active: EC50 [9] 41.7 µM | EC50 [11] 82.6 µM | EC50 [12] 8.04 µM | EC50 [13] 69.3 µM | AC50 [14] 2.43 µM | AC50 [15] 5.41 µM
> 38 µM (not active): EC50 [10]

Cc1ccc(OCC(=O)N/N=C\c2ccco2)c(C)c1
inactive: IC50 [16] > 79.4 µM | IC50 [17] > 79.4 µM | IC50 [18] > 79.4 µM

O=C(O)c1cc(/N=N\c2ccc([As](=O)(O)O)cc2)ccc1O
inconclusive: AC50 [7] | AC50 [8]

CC(=O)Nc1ccc(SCC(=O)Nc2ccc(Cl)cn2)cc1
inactive: IC50 [16] > 79.4 µM | IC50 [17] > 79.4 µM | IC50 [18] > 79.4 µM
